Laboratory results taken from US11384312B2, “Fragrance compositions and methods of use thereof” (TAKASAGO INTERNATIONAL CORPORATION, priority 2016, dated 2022).

Experiments:
salivary cortisol = assay: Timed mathematical and word stress test in panelists exposed to fragrance compound; salivary cortisol before vs after stress; assay type: in vivo, human; details: panelists' saliva, before vs immediately after stress test; single fragrance compound in DPG solvent; DPG control 10.8%
Experimental: (§1) Stress was induced in each panelist using a timed mathematical and word test, which was administered to panelists in a small group competition setting to induce stress in each of the panelists. At set time intervals during the test, each panelist was exposed to either a single fragrance compound or to a DPG control.
(§2) Saliva was collected for each panelist before and immediately after the stress test. Saliva samples were assayed for salivary alpha-amylase activity and salivary cortisol levels using a commercially available assay kit (e.g., Salimetrics).
(§3) Table 1-B summarizes the percent change (i.e., before stress versus after stress) in the salivary cortisol levels of panelists exposed to fragrance compounds of the present disclosure during the stress test. In addition, the table illustrates the statistical significance of the change in salivary cortisol levels (i.e., p-value or probability value, P) of each of the fragrance compounds as compared to DPG, representing the change in the control (i.e., just DPG without a fragrance compound before stress and after stress).

salivary alpha-amylase = assay: Timed mathematical and word stress test in panelists exposed to fragrance compound; salivary alpha-amylase before vs after stress; assay type: in vivo, human; details: panelists' saliva, before vs immediately after stress test; single fragrance compound in DPG solvent; DPG control 51.9%
Experimental: as §1, §2
as §3, with “Table 1-A” for “Table 1-B”, “salivary alpha-amylase” for “salivary cortisol”, “in alpha-amylase” for “in salivary cortisol”

Compound | % Change in Cortisol (i.e., before versus after stress) (salivary cortisol) [%] | % Change in Alpha-amylase (i.e., before versus after stress) (salivary alpha-amylase) [%]
COC(=O)OC1CCC=CCCC1 (stereo not shown) [1-cyclooct-4-enyl methyl carbonate] | 3.5 | 15.2
CC(=O)C1(C)CC2=C(CCCC2(C)C)CC1C (stereo not shown) [1-(1,2,3,4,5,6,7,8-octahydro-2,3,8,8,-tetramethyl-2-naphthyl)ethan-1-one] | −11.9 | −2.5
CC(=O)OC1CCCCC1C(C)(C)C (stereo not shown) [2-tert-butylcyclohexyl acetate] | −14.2 | −4.3
CC1(O)CCC2C(=CCCC2(C)C)C1 (stereo not shown) [2,5,5-trimethyl-1,3,4,4a,6,7-hexahydronaphthalen-2-ol] | 30.0 | 5.1
CC12CCC(CC1=O)C2(C)C (stereo not shown) [Camphor] | −2.2 | −11.6
CC1(C)CCC[C@]2(C)[C@H]3CCO[C@]3(C)CC[C@@H]12 [Ambroxide] | 1.1 | −12.2
CC(C)=CCCC(C)CC=O (stereo not shown) [Citronellal] | 16.8 | 4.9
CC(C)=CCCC(C)CCO (stereo not shown) [Citronellol] | 3.4 | 1.2
CC(C)=CCCC(C)=CC=O [Citral] | −2.8 | 7.5
CC12CCC(CC1)C(C)(C)O2 [Eucalyptol] | −12.87 | −11.1
CC(=O)O[C@@H]1C[C@@H]2CC[C@@]1(C)C2(C)C [Bornyl Acetate, L] | −13.0 | 27.1
C=CC(C)CCCC(C)(C)OC(C)=O (stereo not shown) [Dihydromyrcenyl Acetate] | −13.3 | −3.9
(1,7,7-trimethylbicyclo[2.2.1]hept-2-yl)-cyclohexanol | 1.0 | 3.8
C=CC(=C)CCCC(C)(C)OC(C)=O [Myrcenyl Acetate] | −6.9 | 15.8
CC(C)(C)C1CCC(=O)C(C(C)(C)C)C1 (stereo not shown) [2,4-di(tert-butyl)-cyclohexan-1-one] | 8.3 | 10.9
C=CC(C)CCC=C(C)C (stereo not shown) [Dihyrdomyrcene] | −8.1 | 23.6
CC(C=O)Cc1ccc(C(C)C)cc1 (stereo not shown) [3-(4-isopropylphenyl)-2-methylpropanal] | 17.73 | 4.8
